Columns and labels:
[1] = tested on: SS8T cloned human T cells; experiment: T cell receptor occupancy assay: γ-IFN production by SS8T T cell clone (ELISA); assay type: cell-based; conditions: SS8T cells restricted to HLA-DR2 and MBP 84-102; 48 h incubation; text cites FIG. 2
Protocol: The Herpes saimiri virus (HSV) transformed SS8T human T cell clone was a generous gift from Dr. H. Wekerle. The clone is restricted to DR2 (DRB5*0101) and MBP (84-102) peptide. It was cultured in RPMI 1640 medium supplemented with 2 mM L-glutamine, 100 units/ml penicillin, 100 μg/ml streptomycin, 10% fetal bovine serum and 50 units/ml human recombinant IL-2 (rIL-2) at 37° C. (culture medium). Every alternate day, cells were transferred to fresh culture medium. Various peptides at different concentrations were incubated with the cells in a microtiter tissue culture plate at a density of 20,000 cells/200 μl/well in the absence of rIL-2. After 48 h of incubation at 37° C., the culture fluids were collected from each well to test for γ-IFN and TNF-β cytokines. The detection of γ-IFN was by Ab ELISA as described recently (Arimilli et a.l, J. Immunol. Methods 212:49-59 (1998)). For the detection of TNF-β, Nunc Maxisorb 96-well plates were coated with anti-human TNF-β mAb at a concentration of 0.5 μg/well and incubated at 4° C. overnight. The wells were blocked with 0.1% bovine serum albumin, and samples were incubated at RT for 2 h. A standard curve was generated by using recombinant human TNF-β with a dilution range of 500 to 0.01 ng/ml. […] The reaction was stopped by 2N sulfuric acid at 5 mm, and the absorbance was measured at 450 nm.

HLA-DR2 = molecular target: T1, HLA-DR2 (Homo sapiens, UniProt P01903+Q30154); experiment: Peptide/DR2 competitive binding assay (biotinylated MBP 83-102Y83 vs test peptide, ELISA)
T1 construct: DR2 molecules were purified from the human EBV-B cell line; endogenous in cells; host or cells: human EBV-B cell line
Protocol: DR2 molecules were purified from the human EBV-B cell line. […] Mab L243 (IgG2a) affinity chromatography. A 10 μM solution of affinity purified DR2 was biotinylated with 200 μM Biotin-XX-NHS in 0.25 NaHCO3/0.2% NP-40 for 1 hr. at room temperature.
The ability of peptides to bind HLA-DR2 was estimated by competitive peptide binding assay. Purified HLA-DR2 (2 μg/ml) was incubated with 50-fold excess Bt-MBP 83-102Y83 peptide in the presence or absence of test peptides. The ratio of Et-MEP 831-2Y83 peptide to the test peptide was 1:1. After incubation at 37° C. for 48 hrs, the complex was added to the wells coated with anti-DR antibody and incubated for 2 hours at 37° C. The wells were then washed and alkaline phosphatase-linked streptavidin was added and the reaction incubated for 1 hour at 37° C. The excess streptavidin was washed and the ELISA color was developed by using p-nitrophenol phosphate in 0.1M diethanolamine as substrate. The test peptide was considered to be the stronger binding peptide if the O.D was less than the O.D of Bt 83-102Y83 peptide in the absence of the test peptide.

SS8T cells = experiment: T cell metabolic acidification rate (Cytosensor microphysiometer); assay type: cell-based, human
Text: Freshly cultured SS8T cells were immobilized into microphysiometer cell capsules as described earlier (Arimilli et al., J. Immunol. Methods 212:49-59 (1998)) using low-melt agarose (Molecular Devices Corp., Sunnyvale, Calif.). Briefly, cells were rested from IL-2 pulsing for 2 days. Cells were counted and suspended in a serum-free loading medium (low-buffering RPMI 1640 containing 10% fatty acid free, endotoxin-free BSA). Cells were collected by centrifugation and resuspended at a concentration of 3×10^5 T cells per 7.5 μl of loading medium. Low-melt agarose (Molecular Devices Corp.), melted and stored at 37° C., was added to the suspended cells to a concentration of 2.5 μl per 7.5 μl. Ten μl of the agarose/cell mixture was immediately spotted into the center of the cell capsule cups (Molecular Devices Corp.) held in a 12 well culture plate. After 5 minutes, 2 ml of loading medium was placed in the capsule cup over the solidified agarose and a membrane insert was placed over the cells. The assembled cell capsule was loaded in the Cytosensor chamber at 37° C. and perfused at 50 μl per min with low-buffering RPMI 1640 medium containing […] but no added HEPES or bicarbonate. […]

| Substance | γ-IFN production by SS8T cells exposed to peptide [1] | inhibition of the binding of biotinylated MBP 83-102 to DR2 (HLA-DR2; purified DR2, 50-fold molar excess biotinylated MBP 83-102Y83, increasing concentrations of test peptide, FIG. 1) | affinity of binding to DR2 relative to MBP peptide (HLA-DR2; synthesized peptide, compared with MBP 84-102 peptide) | activation of the MBP 83-102 specific T cells in the presence of increasing concentrations of test peptide (SS8T cells; competition with MBP peptide, increasing concentrations) | stimulation of SS8T cells (extracellular acidification rate) (SS8T cells; SS8T cells immobilized in agarose, exposed to peptide, FIG. 3) |
| --- | --- | --- | --- | --- | --- |
| Ac-GFGYGGRASDYKSAHKGFKG (Ac-GFGYGGRASDYKSAHKGFKG-NH2) [MBP 124-143 peptide, myelin basic protein peptide 124-143, control] | did not show any increase in γ-IFN production |  |  |  |  |
| GHIKSSISFMGM [peptide #1] |  | to the same extent as the unbiotinylated MBP 83-102 peptide | comparatively in the same range as that of the MBP 83-102 peptide | decreasing activation of the hybridomas in a competitive manner |  |
| Ac-YDENPVVHEKMVTPRTPP (Ac-YDENPVVHEKMVTPRTPP-NH2) [MBP 83-102 peptide, myelin basic protein peptide 83-102 with Y at position 83] | specific increase in γ-IFN production |  |  |  | increased level of extracellular acidification rate within 10 minutes |

— patent publication US20030103993A1, “HLA-DR2 binding peptides” (Corixa Corporation, priority 2000, published 2003)
